Laboratory results as given in article PMC12040169 (PLOS Biology, 2025).

Assay: in vitro
Details: human, hela cells, % viability

Work on `C1CN(c2nc(N3CCOCC3)nc(N3CCOCC3)n2)CCN1` [CBK261380] yielded a viability at 28.5 h, 10 µM of 84.9%.

In the case of `CC(C)C[C@H]1NC(=O)[C@@H]2C[C@@H](NC(=O)CS(=O)(=O)c3ccccc3)CCN2C1=O` [CBK289554], the viability at 28.5 h, 10 µM is reported as 89.1%.

For `COc1cc(-c2nc3ncccc3cc2NC(=O)C(C)C)cc(OC)c1OC` [CBK073661], the viability at 28.5 h, 10 µM was 96.6%.

`CCc1nc2ccc(C(=O)N(C)Cc3ccco3)cn2c1N(C)C(=O)c1ccncc1` [CBK145479] gave a viability at 28.5 h, 10 µM of 90.9%.

For `COc1ccccc1N1CCN(C(=O)NCC2CCCCC2)CC1` [CBK155588], the viability at 28.5 h, 10 µM was 98.3%.

For `O=S(=O)(c1ccc(F)cc1)N1CCCC1c1cccc(Cc2ccc(F)cc2)n1` (stereo not shown) [CBK286249], the viability at 28.5 h, 10 µM was 88%.

With `COc1ccc(-c2coc3c(C)c4oc(=O)c(CC(=O)O)c(C)c4cc23)cc1` [CBK269403] the viability at 28.5 h, 10 µM was 105%.

For `CC1=NN(c2ccccc2)C(=O)C1C(=O)c1ccccc1` (stereo not shown) [CBK083564], the viability at 28.5 h, 10 µM was 99.3%.

`O=C(O)c1ccc(CN2C[C@H](O)C[C@H]2c2nc(-c3ccc(F)cc3)no2)cc1` [CBK288870] showed a viability at 28.5 h, 10 µM of 112%.

`CCOC(=O)C1CCCN(Cc2c(C)nn(C)c2Cl)C1` (stereo not shown) [CBK304838] showed a viability at 28.5 h, 10 µM of 92.4%.

`Cc1nc2c(oc3nc(-c4ccoc4)c4c(c32)CC(C)(C)OC4)c(-c2ccccc2)c1C(=O)O` [CBK265286] gave a viability at 28.5 h, 10 µM of 109%.

With `CC(C)(C)OC(=O)N1CCN(Cc2nc(-c3ccccc3)no2)CC1` [CBK306465] the viability at 28.5 h, 10 µM was 99.8%.

In the case of `O=C(O)CCCN1C(=O)c2ccccc2C1=O` [CBK056635], the viability at 28.5 h, 10 µM is reported as 91.7%.

Work on `Cc1cc(NC(=O)c2nn(-c3ncccn3)c3ccccc23)n(C)n1` [CBK048505] yielded a viability at 28.5 h, 10 µM of 92.3%.

With `COc1cccc2sc(NC(=O)Cc3ccccc3)nc12` [CBK149284] the viability at 28.5 h, 10 µM was 103%.

Work on `CS(=O)(=O)c1sc(C(=O)O)c2c1C=CCC2` [CBK005513] yielded a viability at 28.5 h, 10 µM of 87.3%.

In the case of `O=C(O)c1sccc1NS(=O)(=O)Cc1ccccc1` [CBK004561], the viability at 28.5 h, 10 µM is reported as 92.3%.

With `O=C(COc1cccnc1)N1CCc2ccccc21` [CBK200268] the viability at 28.5 h, 10 µM was 107%.

With `COC(=O)CCC(=O)Nc1cccc([N+](=O)[O-])c1` [CBK261345] the viability at 28.5 h, 10 µM was 95.4%.

In the case of `CCCCOc1ccc(NC(=O)Nc2cc3cccnc3c(Br)n2)cc1` [CBK063291], the viability at 28.5 h, 10 µM is reported as 78.1%.

Molecule `O=C(O)Cc1c[nH]c2ccccc12` [CBK228897G] has a viability at 28.5 h, 10 µM of 102%.

Work on `COc1ccc(Cl)cc1N1CCN(Cc2c(F)cccc2F)CC1` [CBK126410] yielded a viability at 28.5 h, 10 µM (bulk resorufin, single well) of 90.9%.

With `Cn1cc(CN(Cc2ccccc2)CC2CCCO2)cn1` (stereo not shown) [CBK283233] the viability at 28.5 h, 10 µM was 85.1%.

`Cc1ccc(NC(=O)CCN2C(=O)c3cccc([N+](=O)[O-])c3C2=O)c(Br)c1` [CBK263172] showed a viability at 28.5 h, 10 µM of 98%.

For `Cc1ccc(NC(=O)Cn2cnc3c2c(=O)n(C)c(=O)n3C)nc1` [CBK133463], the viability at 28.5 h, 10 µM was 95.9%.

In the case of `CCc1nc(CN2CCCC(NCc3cccc(C(N)=O)c3)C2)no1` (stereo not shown) [CBK306254], the viability at 28.5 h, 10 µM is reported as 87.2%.

`CCOC(=O)/C(=N/O)C(=O)c1c[nH]c2ccccc12` [CBK260979] showed a viability at 28.5 h, 10 µM of 96%.

`CCC(c1cccnc1)N(C)C(=O)c1ccc(=O)n(C)c1` (stereo not shown) [CBK306802] gave a viability at 28.5 h, 10 µM of 101%.

`Cn1cccc1CN1C[C@H]2CC[C@]3(NC(=O)c4ccccc4N3)[C@H]2C1` [CBK284443] showed a viability at 28.5 h, 10 µM of 97.7%.

In the case of `c1ccc(Nc2nc(-c3ccco3)cn3ccnc23)cc1` [CBK037947], the viability at 28.5 h, 10 µM is reported as 86.9%.

For `Cc1ccc(-c2cc(C(=O)NC3CN4CCC3CC4)[nH]n2)o1` (stereo not shown) [CBK283276], the viability at 28.5 h, 10 µM was 104%.

Work on `CCCn1nc(C)c(CN(C)Cc2n[nH]c3c2CCCC3)c1C` [CBK282600] yielded a viability at 28.5 h, 10 µM of 95.4%.

Molecule `Cc1ccc(-n2c(SCC(N)=O)nnc2-c2ccccc2O)c(C)c1` [CBK269673] has a viability at 28.5 h, 10 µM of 89.6%.

In the case of `CN(C)[C@H]1CCCC[C@@H]1n1c(-c2ccc(Cl)c(Cl)c2)n[nH]c1=O` [CBK010566], the viability at 28.5 h, 10 µM is reported as 114%.

In the case of `Fc1ccc(-c2n[nH]c(=S)n2CCCN2CCOCC2)cc1` [CBK267127], the viability at 28.5 h, 10 µM is reported as 100%.

Molecule `Cc1nc(-c2ccccc2)c(CC(=O)NC2CCCOC2)s1` (stereo not shown) [CBK282586] has a viability at 28.5 h, 10 µM of 93.4%.

With `Cc1noc(C2(O)CCN(CCc3ccc(F)c(F)c3)C2)n1` (stereo not shown) [CBK304753] the viability at 28.5 h, 10 µM was 93.9%.

Work on `N#CC(C(=O)NC1CCCCC1)C(=O)c1nn(-c2ccccc2)c2c1CSc1ccccc1-2` (stereo not shown) [CBK017690] yielded a viability at 28.5 h, 10 µM of 103%.

For `Cn1c(=O)c2c(ncn2Cc2ccccc2)n(C)c1=O` [CBK133402], the viability at 28.5 h, 10 µM was 102%.

`O=[N+]([O-])c1ccccc1S(=O)(=O)N1CCN(S(=O)(=O)Cc2ccccc2)CC1` [CBK264230] showed a viability at 28.5 h, 10 µM of 96.9%.

With `Cc1ccc(NC(=O)c2ccccc2NS(=O)(=O)c2ccc(C(C)C)cc2)cc1` [CBK113800] the viability at 28.5 h, 10 µM was 77.8%.

With `CC1CCc2c(sc3ncn(C4CCNCC4)c(=O)c23)C1` (stereo not shown) [CBK282349] the viability at 28.5 h, 10 µM was 91.4%.

Work on `O=C(CN1C(=O)c2ccc([N+](=O)[O-])cc2C1=O)Nc1cccc2c1C(=O)N(c1ccccc1)C2=O` [CBK265576] yielded a viability at 28.5 h, 10 µM of 84.7%.

With `CCN1CCN(CCOc2c(OC)cccc2OC)CC1` [CBK267375G] the viability at 28.5 h, 10 µM was 96.9%.

In the case of `CC1(NC(=O)Cn2c(C(F)(F)F)nc3ccccc32)CCC1` [CBK281606], the viability at 28.5 h, 10 µM is reported as 82.2%.

Molecule `Clc1nccnc1NCCOc1ccccc1` [CBK113564] has a viability at 28.5 h, 10 µM of 93.8%.

`CCOc1cc(NC2CCN(C(=O)C3CCCCC3(C)C)CC2)ncn1` (stereo not shown) [CBK305505] gave a viability at 28.5 h, 10 µM of 105%.

`COc1ccc(N2CCN(CC(=O)N3c4ccccc4Sc4ccccc43)CC2)cc1` [CBK269398] gave a viability at 28.5 h, 10 µM of 89.1%.

In the case of `CSCc1nnc(SCc2ccccc2Oc2ccccc2)o1` [CBK296743], the viability at 28.5 h, 10 µM is reported as 99.2%.

Molecule `CC(=O)N1CCc2cc(Nc3ncnc4c3cnn4CCC#N)ccc21` [CBK305950] has a viability at 28.5 h, 10 µM of 101%.

`Cc1cc(C)c2c(CC(=O)NCCCN3CCOCC3)coc2c1` [CBK268307] showed a viability at 28.5 h, 10 µM of 96.8%.

Work on `CCN1CCN(S(=O)(=O)c2ccccc2F)CC1` [CBK100558] yielded a viability at 28.5 h, 10 µM of 104%.

`COc1ccc(-c2cnccc2-n2ccnc2)cn1` [CBK177147] gave a viability at 28.5 h, 10 µM of 113%.

`Cc1cc(C(=O)Cn2nc(C(=O)O)c3ccccc3c2=O)c(C)n1Cc1ccccc1Cl` [CBK297504] showed a viability at 28.5 h, 10 µM of 111%.

`COc1ccc(CC(=O)Nc2cccc(OC(F)(F)F)c2)cc1OC` [CBK296734] gave a viability at 28.5 h, 10 µM of 88.1%.

`COc1cc(OC)c(C(C)=O)c(OCCOc2nccnc2N2CCNCC2)c1` [CBK013497T] gave a viability at 28.5 h, 10 µM of 95.8%.

In the case of `COc1nccc(N2CCN(C)C3(CCNC(=O)CC3)C2)c1C#N` (stereo not shown) [CBK307676], the viability at 28.5 h, 10 µM is reported as 116%.

In the case of `O=[N+]([O-])c1ccc(CCNCC(O)COc2cccc3c2CCCC3)cc1` (stereo not shown) [CBK003083], the viability at 28.5 h, 10 µM is reported as 88.6%.

In the case of `Cc1ccc(C(=O)Oc2cccc(NC(=O)c3ccco3)c2)cc1S(=O)(=O)N1CCOCC1` [CBK263211], the viability at 28.5 h, 10 µM is reported as 94.1%.

Work on `Cc1cc(NC(=O)C2CC2)sc1C(=O)NC(C)c1ccc(F)cc1F` (stereo not shown) [CBK296625] yielded a viability at 28.5 h, 10 µM of 104%.

`O=C(Cc1ccc(Cl)c(Cl)c1)N1CCCC2(CCN(Cc3ccccc3)C2)C1` (stereo not shown) [CBK136872] gave a viability at 28.5 h, 10 µM of 91.9%.

In the case of `COc1ccccc1NC(=O)/C(=C\c1cccnc1)NC(=O)c1ccccc1` [CBK261649], the viability at 28.5 h, 10 µM is reported as 89.6%.

With `O=C(Nc1ccc(Cc2ccc(NC(=O)c3ccccc3F)c(O)c2)cc1O)c1ccccc1F` [CBK268366] the viability at 28.5 h, 10 µM was 90.4%.

`Cn1c(=O)c2c(ncn2Cc2noc(-c3ccoc3)n2)n(C)c1=O` [CBK304945] gave a viability at 28.5 h, 10 µM of 86.3%.
